Article PMC5358776, “Insight into the mechanism of action of temporin-SHa, a new broad-spectrum antiparasitic and antibacterial agent” (PLoS ONE, 2017)
Converted amounts (≈) assume the structure as drawn. Read-outs that look alike come from different tables or passages of the source. Where no end group is shown, it is not given here.

Experiments:
[1] = system: L. infantum promastigotes; test: Cell cycle analysis, sub-G1 phase; assay type: cell-based, Leishmania infantum; conditions: 50 μM, 48 h
Method: (§1) Mid-log phase L. infantum promastigotes were synchronized at the G1/S border by treating with 10 mM hydroxyurea for 24 h at 26°C [81]. […] Then 400 μl of different concentrations of peptide (12.5, 25 and 50 μM, final concentrations) were added to 1.6 ml of the cell suspension. After 48 h incubation, samples were split into two volumes (2 x 1 ml) to analyze the cell cycle and DNA fragmentation. For cell cycle analysis, the first sample (1 ml) was centrifuged (1,000 x g, 10 min) and 100 μl of HBSS was added to the pellet. Then, 900 μl of cold 70% ethanol was gently added drop-wise for cell fixation. After an overnight incubation at -20°C, cells were washed (16,000 x g, 10 min, 4°C) with HBSS and resuspended in 1 ml of HBSS containing 100 μg of RNase A (Sigma-Aldrich) and 5 μg of propidium iodide. After 30 min of incubation at 37°C, samples were passed 5 times through a sterile plastic syringe fitted with a 27 gauge needle and analyzed by flow cytometry (FACSCalibur). For DNA fragmentation analysis, a TUNEL assay was performed on the second 1 ml sample. […] DNA strand breaks were detected by the addition of biotinylated nucleotides to the free 3′-hydroxyl ends of the DNA fragments using TdT (terminal deoxynucleotidyl transferase) and tagged with a streptavidin-FITC conjugate for subsequent detection by flow cytometry. […]

[2] = system: L. infantum promastigotes; test: DNA fragmentation, TUNEL assay; assay type: cell-based, Leishmania infantum; conditions: 50 μM, 48 h
Method: as §1

E. coli ATCC 25922 [3] = test: Multipassage resistance selection; assay type: cell-based, Escherichia coli; conditions: for fold increase in the MIC against control bacteria at the end of the selection: lineages grown without antimicrobial agent, passage 55
E. faecalis ATCC 29212 = conditions: ATCC 29212
Method: (§2) Listeria ivanovii Li4pVS2 (kindly provided by Jean-Marc Berjeaud, Université de Poitiers, France), and Streptococcus pyogenes ATCC 19615 (ATCC) were cultured in brain heart infusion (BHI, Sigma-Aldrich) medium under the same conditions.
(§3) Activity against bacteria and yeasts was assessed with a liquid growth inhibition assay performed in 96-well microtitration plates, according to a previously described protocol [14], using mid-logarithmic phase cultures diluted in Mueller-Hinton (MH, Dominique Dutscher) broth (LB broth for E. faecalis strain and YPD medium for yeasts/fungi) to an A630 value of 0.01 (10^6 cfu/ml) and 2-fold serial dilutions of synthetic temporin (200–1 μM, final concentrations). The minimal inhibitory concentration (MIC) was determined as the mean value of three independent experiments, each performed in triplicate with negative (H2O) and positive (0.7% formaldehyde) controls.

E. coli ML-35p = conditions: MH broth, 10^6 cfu/ml; mean of 3 independent experiments in triplicate
Method: as §2, §3

P. aeruginosa ATCC 27853 = conditions: ATCC 27853
Method: as §2, §3

S. aureus ST1065 = conditions: ST1065
Method: as §3

[4] = system: S. enterica (serotype Enteritidis); conditions: serotype Enteritidis
Method: as §3

[5] = system: Gram-negative and Gram-positive bacteria and yeasts/fungi; test: MIC, whole panel of strains; assay type: cell-based; conditions: for MIC: against all strains
S. aureus ATCC 25923 = conditions: ATCC 25923
Method: as §3

[6] = system: C. parapsilosis ATCC 22019; conditions: ATCC 22019, 96 h
Method: (§4) Candida albicans ATCC 90028, Candida parapsilosis ATCC 22019 (ATCC), and Saccharomyces cerevisiae (laboratory collection) were cultured in yeast peptone dextrose (YPD, Sigma-Aldrich) medium at 30°C.
(§5) The minimal inhibitory concentration (MIC) was determined as the mean value of three independent experiments, each performed in triplicate with negative (H2O) and positive (0.7% formaldehyde) controls.

S. cerevisiae = conditions: 96 h
Method: as §4, §5

C. albicans ATCC 90028 = conditions: ATCC 90028, 96 h
Method: as §4, §5

K. pneumoniae ATCC 13883 = conditions: ATCC 13883
Method: as §3

Rat erythrocytes = conditions: 1 h
Method: (§6) Hemolytic assays were also performed using erythrocytes obtained from fresh blood samples of Wistar male rats (Charles River Laboratories, France). The hemolytic activity was measured by incubating the peptide (1–200 μM, final concentrations) with erythrocytes (2 x 10^7 cells) in PBS (100 μl) for 1 h at 37°C, as previously described [23]. A parallel incubation in the presence of 0.1% (v/v) Triton-X100 was carried out to determine the absorbance associated with 100% hemolysis. […] For THP-1-derived macrophages, viability was determined by Trypan blue staining after incubation with peptide (1–100 μM, final concentrations). LC50 (average concentration of the peptide producing 50% cell lysis) and IC50 values were determined with GraphPad Prism 6.0 software and correspond to the mean obtained from three independent experiments carried out with three (erythrocytes, THP-1 monocytes, HepG2 and HFF cells) or six replicates (THP-1-derived macrophages).
(§7) IC50 or LC50 values were determined for the different human cells mentioned above in the cytotoxicity assays.

A. baumannii ATCC 19606 = conditions: ATCC 19606
Method: as §3

E. coli ATCC 25922 [7] = conditions: ATCC 25922
Method: as §2, §3

S. pyogenes ATCC 19615 = conditions: ATCC 19615
Method: as §2, §3

Human THP-1 monocytes = conditions: 72 h
Human HepG2 = conditions: MTT, 72 h, 37°C, 50–600 μM; mean of 3 independent experiments in triplicate
Human erythrocytes = conditions: 1 h
Method: as §6, §7

T. cruzi epimastigotes = conditions: epimastigotes, 120 h
Method: (§8) Antiparasitic activity was evaluated against trypanosomatids, such as Leishmania and Trypanosoma. Antileishmanial activity was determined either by a luminescence-based assay (L. infantum, L. major and L. braziliensis) or by cell counting (FACSCalibur flow cytometer, Becton-Dickinson Biosciences, Woburn, MA, USA) after staining with propidium iodide (L. tropica and L. amazonensis), as previously described [23], using promastigotes or axenic amastigotes (1.25 x 10^6 parasites/ml) in mid-log phase and 5-fold serial dilutions of synthetic temporin (50–3.1 μM, final concentrations). Antitrypanosomal activity against T. brucei gambiense and T. cruzi was assessed by cell counting, similar to the L. tropica and L. amazonensis analysis, after incubation of the parasites (96 h for T. brucei gambiense and 120 h for T. cruzi) with the synthetic temporin, as previously described [23]. The half maximal inhibitory concentration (IC50) value was determined with GraphPad Prism 6.0 software (GraphPad Software, La Jolla, CA, USA) using a sigmoidal dose response (variable slope) curve fitting equation. The results are expressed as the means of three independent experiments performed in triplicate (luminescence-based assays) or in duplicate (cell counting-based assays).

L. major promastigotes = conditions: promastigotes, 96 h
Method: (§9) L. infantum axenic amastigotes were differentiated from promastigotes in MAA medium (supplemented with 20% FCS) and were grown at 37°C in 5% CO2 [23].
(§10) Antiparasitic activity was evaluated against trypanosomatids, such as Leishmania and Trypanosoma. Antileishmanial activity was determined either by a luminescence-based assay (L. infantum, L. major and L. braziliensis) or by cell counting (FACSCalibur flow cytometer, Becton-Dickinson Biosciences, Woburn, MA, USA) after staining with propidium iodide (L. tropica and L. amazonensis), as previously described [23], using promastigotes or axenic amastigotes (1.25 x 10^6 parasites/ml) in mid-log phase and 5-fold serial dilutions of synthetic temporin (50–3.1 μM, final concentrations). […] The half maximal inhibitory concentration (IC50) value was determined with GraphPad Prism 6.0 software (GraphPad Software, La Jolla, CA, USA) using a sigmoidal dose response (variable slope) curve fitting equation. The results are expressed as the means of three independent experiments performed in triplicate (luminescence-based assays) or in duplicate (cell counting-based assays).

[8] = system: promastigotes of several species of Leishmania; conditions: 96 h
Method: as §8

[9] = system: L. amazonensis promastigotes; conditions: promastigotes, 96 h
Method: as §9, §10

[10] = system: L. infantum (intramacrophagic) amastigotes in THP-1-derived macrophages; conditions: intramacrophagic) amastigotes in THP-1-derived macrophages, 24 h
Method: Leishmania infantum (strain MHOM/MA/67/ITMAP-263), Leishmania major (strain MHOM/SU/73/5-ASKH), Leishmania tropica (strain MHOM/SU/74/SAFK27), Leishmania amazonensis (strain MHOM/BR/73/M2269), and Leishmania braziliensis (strain MHOM/BR/75/M2904) promastigotes (kindly provided by Francine Pratlong, Centre National de Référence des Leishmania, Montpellier, France) were cultured at 26°C in SDM-79 medium supplemented with 10% fetal calf serum (FCS, Gibco) [23]. […] L. infantum-infected human macrophages were obtained from human THP-1 monocytes, as previously described [23, 78].
Intramacrophagic leishmanicidal activity of the peptides was assessed by incubating L. infantum-infected human macrophages with 2-fold serial dilutions of peptide (50–2.5 μM, final concentrations) for 4 days, as previously described [23]. THP-1-derived macrophages were infected with promastigotes from late log phase at a density of 5 x 10^5 cells/well (ratio 10:1) in RPMI medium for 24 h at 37°C with 5% CO2. […] The results are expressed as the means of two experiments performed with six replicates.

T. brucei gambiense = conditions: gambiense, 96 h
Method: as §8

[11] = system: L. infantum (antimony resistant) promastigotes; conditions: antimony-resistant parasites
Method: as §8

[12] = system: L. braziliensis promastigotes; conditions: 96 h
Method: as §9, §10

Gram-negative bacteria = conditions: 6 Gram-negative strains of Table 3
S. aureus ATCC BAA-44 = conditions: ATCC BAA-44
[13] = system: L. infantum (axenic) amastigotes; conditions: axenic) amastigotes, 96 h
Method: as §9, §10

Human fibroblasts (HFF) = conditions: 72 h
S. aureus ATCC 43300 = conditions: strain resistant to methicillin and oxacillin; MH broth, 10^6 cfu/ml; mean of 3 independent experiments in triplicate
Method: as §2, §3

[14] = system: Human THP-1-derived macrophages; test: Cytotoxicity, Trypan blue staining; conditions: 1–100 μM, mean of 3 independent experiments, six replicates
Method: as §6, §7

Gram-positive bacteria = conditions: 7 Gram-positive strains of Table 3
[15] = system: L. infantum promastigotes; conditions: promastigotes, 96 h
Method: as §9, §10

Method for L. ivanovii: as §2, §3

`CCCCCCCCCCCCCCCCOP(=O)([O-])OCC[N+](C)(C)C` [Miltefosine, hexadecylphosphocholine] was tested. Which “Sub-G1 phase (% of cells)” value [1] did it give?
Its value is 29.1 % of cells.

What about the “Sub-G1 phase (% of cells)” value ([1]; listed as miltefosine) of the same molecule?
The value was 29 % of cells.

And the “DNA fragmentation (FITC-positive cells)” value [2]?
Its value is “approximately 65%”.

Which MIC (E. coli ATCC 25922 [3]; Escherichia coli, ATCC25922, read-out: MIC (initial, before selection)) does the source give for `CC1(C)S[C@@H]2[C@H](NC(=O)[C@H](N)c3ccccc3)C(=O)N2[C@H]1C(=O)O` [ampicillin] here?
The MIC was 12.5 µM (≈ 4.37 µg/mL).

And the “fold increase in the MIC against adapted E. coli lineages” value (E. coli ATCC 25922 [3]; lineages adapted from MIC/16 to MIC, 55 passages)?
Its value is 6 fold.

What about the “fold increase in the MIC against control bacteria at the end of the selection” value (E. coli ATCC 25922 [3]) of the same molecule?
The value was 4 fold.

How did the “fold increase in the MIC against control bacteria at the end of the selection” value (E. coli ATCC 25922 [3]) turn out when D-temporin-SHa [D-SHa] was run?
Its value is ~2 fold.

For “FAKGIAGMAGKLF-NH2 [[A^2,6,9, K^3]SHa, [A^2,6,9, K^3]temporin-SHa]”, which MIC (E. faecalis ATCC 29212) is on record?
The MIC was > 200 µM.

What about the MIC (E. coli ML-35p) of the same molecule?
Its MIC is > 200 µM.

What about the MIC (P. aeruginosa ATCC 27853) of the same molecule?
The MIC was > 200 µM.

And the MIC (S. aureus ST1065)?
Its MIC is > 200 µM.

What about the MIC [4] of the same molecule?
Its MIC is > 200 µM.

What about the MIC [5] of the same molecule?
Its MIC is > 200 µM.

And the MIC (S. aureus ATCC 25923)?
The MIC was > 200 µM.

And the MIC [6]?
Its MIC is > 200 µM.

And the MIC (L. ivanovii)?
Its MIC is > 200 µM.

What about the MIC (S. cerevisiae) of the same molecule?
Its MIC is > 200 µM.

What about the MIC (C. albicans ATCC 90028) of the same molecule?
Its MIC is > 200 µM.

And the MIC (K. pneumoniae ATCC 13883)?
The MIC was > 200 µM.

What about the LC50 (Rat erythrocytes) of the same molecule?
The LC50 was > 200 µM.

And the MIC (A. baumannii ATCC 19606)?
Its MIC is > 200 µM.

What about the MIC (E. coli ATCC 25922 [7]) of the same molecule?
The MIC was > 200 µM.

Which MIC (E. faecalis ATCC 29212) does the source give for “FASGIAGMAGKLF-NH2 [[A^2,6,9]SHa, [A^2,6,9]temporin-SHa]” here?
Its MIC is > 200 µM.

And the MIC (E. coli ML-35p)?
The MIC was > 200 µM.

What about the MIC (P. aeruginosa ATCC 27853) of the same molecule?
Its MIC is > 200 µM.

And the MIC (S. aureus ST1065)?
Its MIC is > 200 µM.

What about the MIC [4] of the same molecule?
Its MIC is > 200 µM.

What about the MIC [5] of the same molecule?
The MIC was > 200 µM.

What about the MIC (S. aureus ATCC 25923) of the same molecule?
The MIC was > 200 µM.

And the MIC (S. pyogenes ATCC 19615)?
The MIC was > 200 µM.

And the MIC [6]?
Its MIC is > 200 µM.

And the MIC (L. ivanovii)?
Its MIC is > 200 µM.

What about the MIC (S. cerevisiae) of the same molecule?
The MIC was > 200 µM.

And the MIC (C. albicans ATCC 90028)?
The MIC was > 200 µM.

And the IC50 (Human THP-1 monocytes)?
Its IC50 is > 60 µM.

And the MIC (K. pneumoniae ATCC 13883)?
The MIC was > 200 µM.

What about the LC50 (Rat erythrocytes) of the same molecule?
The LC50 was > 200 µM.

And the IC50 (Human HepG2)?
The IC50 was > 600 µM.

And the LC50 (Human erythrocytes)?
The LC50 was > 100 µM.

What about the MIC (A. baumannii ATCC 19606) of the same molecule?
Its MIC is > 200 µM.

And the MIC (E. coli ATCC 25922 [7])?
The MIC was > 200 µM.

Which results are given for “FLKGIVGMLGKLF-NH2 [[K^3]SHa, [K^3]temporin-SHa]”?
MIC (E. faecalis ATCC 29212): 6 µM; MIC (E. coli ML-35p): 3 µM; IC50 (T. cruzi epimastigotes): 10 µM; MICGM (geometric mean of the MIC values) (Yeasts/fungi; 3 yeast/fungal strains of Table 3): 7.7 µM; MIC (range over strains) (Yeasts/fungi; yeasts/fungi): 3 to 25 µM; IC50 (L. major promastigotes): 10 µM; IC50 [8]: 5 to 10 µM; MIC (P. aeruginosa ATCC 27853): 6 µM; MIC (S. aureus ST1065): 3 µM; MIC [4]: 6 µM; MIC (range over strains) ([5]; all the tested bacteria): 1 to 6 µM; MIC (S. aureus ATCC 25923): 3 µM; MIC (S. pyogenes ATCC 19615): 1 µM; MIC [6]: 25 µM; IC50 [9]: 8 µM; IC50 [10]: 5 µM; MIC (L. ivanovii): 3 µM; IC50 (T. brucei gambiense): 16 µM; IC50 [11]: 9 µM; IC50 [12]: 5 µM; MICGM (geometric mean of the MIC values) (Gram-negative bacteria): 3.8 µM; MIC (S. cerevisiae): 3 µM; MIC (C. albicans ATCC 90028): 6 µM; MIC (S. aureus ATCC BAA-44): 3 µM; IC50 [13]: 20 µM; IC50 (Human fibroblasts (HFF)): > 100 µM; IC50 (Human THP-1 monocytes): 48 µM; MIC (K. pneumoniae ATCC 13883): 3 µM; LC50 (Rat erythrocytes): 26 µM; IC50 (Human HepG2): 358 µM; LC50 (Human erythrocytes): 50 µM; MIC (S. aureus ATCC 43300): 3 µM; MIC (A. baumannii ATCC 19606): 3 µM; LC50 [14]: 55 µM; MICGM (geometric mean of the MIC values) (Gram-positive bacteria): 2.8 µM; MIC (E. coli ATCC 25922 [7]): 3 µM

Which IC50 (Human THP-1 monocytes) does the source give for “GLWSKIKEVGKEAAKAAAKAAGKAALGAVSEAV-NH2 (C-terminus assumed) [dermaseptin B2, reference compound]” here?
The IC50 was ~7 µM.

And the IC50 [15]?
The IC50 was 2.5 µM.
